As a reminder, the IC50 is the point on the concentration scale where inhibition reaches its midpoint.

Experimental findings from US20250276993A1, “PSEUDO-DISACCHARIDE COMPOUNDS” (UNIVERSITEIT LEIDEN, priority 2022, published 2025) are described below.

Assay [1] deals with 4T1 mouse mammary carcinoma cells. The assay is described as follows: 4T1 breast cancer lung metastasis model. Type of assay: in vivo, Balb/c mice. The settings on record: 2: 300 nmol/mouse i.p.; SST0001: 150 μg/mouse i.p.; bioluminescence, 14 day timepoint. The procedure:
4T1 breast cancer—Twenty minutes before tumor cell inoculation, Balb/c mice (n=5) were injected intraperitoneally with vehicle alone (PBS), compound 2 (300 nmol/mouse), or SST0001 (150 μg/mouse). Mice were subsequently intravenously inoculated with 1.5×10^5 luciferase tagged 4T1 mouse mammary carcinoma cells/mouse in a volume of 100 μL, alongside 20 μM 2 or 10 μg SST0001.
Bioluminescence imaging of lung metastases produced by luciferase-expressing 4T1 cells was carried out using a highly sensitive, cooled charge-coupled device camera assembled in a specimen box (IVIS; Xenogen Corp, Hopkinton, MA). For this, the tumor-bearing mice were intraperitoneally administered with a luciferase substrate D-luciferin at a dose of 150 mg/kg body weight. The mice were anesthetized and kept in a camera box followed by continuous exposure to isoflurane (EZAnesthesia, Palmer, PA, USA). The tumor burden was quantified using Living Image software (Xenogen) (U. Barash et al., Journal of the National Cancer Institute 110, 1102-1114, 2018; M. Weissmann et al., Proc Natl Acad Sci, 113, 704-709, 2016)
The compounds of the invention were tested against a B16 murine melanoma experimental metastasis model, which measures the formation of metastatic lung tumors by B16 cancer cells after intravenous (i.v.) injection. […]

Assay [2] concerns the target T1, rHPSE (Homo sapiens, UniProt Q9Y251).
T1 sequence (Q9Y251 36-109 limits assumed): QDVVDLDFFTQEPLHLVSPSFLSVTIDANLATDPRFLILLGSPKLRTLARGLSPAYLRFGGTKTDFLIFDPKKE
T1 sequence (Q9Y251 158-543 limits assumed): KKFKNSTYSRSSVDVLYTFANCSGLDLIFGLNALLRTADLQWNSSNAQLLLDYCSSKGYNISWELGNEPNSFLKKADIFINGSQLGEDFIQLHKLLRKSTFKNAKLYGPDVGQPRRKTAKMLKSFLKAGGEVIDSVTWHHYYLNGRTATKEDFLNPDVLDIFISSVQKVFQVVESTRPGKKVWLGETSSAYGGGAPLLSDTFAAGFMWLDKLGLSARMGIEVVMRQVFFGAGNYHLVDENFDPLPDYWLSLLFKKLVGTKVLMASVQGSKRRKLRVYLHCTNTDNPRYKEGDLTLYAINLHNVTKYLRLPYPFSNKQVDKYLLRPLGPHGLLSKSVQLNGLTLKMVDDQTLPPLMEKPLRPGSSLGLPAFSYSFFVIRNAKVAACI
Briefly: in-gel competitive ABPP, recombinant HPSE. The settings on record: apparent IC50, in-gel competitive ABPP-based assay; read-out: In vitro IC50 rHPSE. The assay is classed as biochemical. The procedure: ABP labelling reactions were carried out in Mcllvaine buffer (pH 5.5), 300 mM NaCl. For recombinant proteins 200 fmol of EcGH2, BpHep, AcGH79, HPSE or proHPSE was used (20 nM in 10 μl final reaction volume). For labeling cell lysates, 4-20 μg total protein was used. Labeling reactions were initiated by the addition of ABP compounds 7, 8 or 9 to a final concentration of 100 nM (unless otherwise specified), before incubation for 30 min at 37° C. with shaking. Following labeling, samples were denatured by boiling with Laemmli buffer for 5 min and resolved by SDS-PAGE. Gels were scanned using Typhoon-5 laser scanner platform (Cytiva), using the λEX 635 nm laser and 670BP30 emission filter. For competitive ABPP (cABPP) experiments, protein mixtures were preincubated with inhibitor (or buffer only control) for 1 h at 37° C. with shaking, before the addition of 7 to a final concentration of 100 nM, and subsequent incubation for 30 min at 37° C. with shaking. SDS-PAGE and analysis steps were carried out as above. For quantitative measurements, fluorescently labeled band intensities were calculated using Imagequant (Cytiva), and normalized to the corresponding band in the inhibitor free control lane. cABPP plots were prepared and analyzed using SigmaPlot 14.0 (Systat).
Competitive activity of compounds 2, 12 and 13 were investigated using cABPP Assay 2.
To gain insight into HPSE structure-activity relationships, apparent HPSE inhibition was tested for cyclitol 12, its disaccharidic analogue 13 and parent HPSE inhibitor 2 (FIG. 7a). […] Conversely, 13 could inactivate rHPSE down to 2 μM inhibitor concentration similar to 2.

Assay [3] deals with T2, GUSB (Homo sapiens, UniProt P08236).
T2 construct: Platelet lysates contain complex mixtures of overlapping enzyme activities, including both endo- and exo-β-glucuronidases HPSE and GUSB; endogenous in cells; host or cells: human platelet lysates
T2 sequence (P08236 23-651): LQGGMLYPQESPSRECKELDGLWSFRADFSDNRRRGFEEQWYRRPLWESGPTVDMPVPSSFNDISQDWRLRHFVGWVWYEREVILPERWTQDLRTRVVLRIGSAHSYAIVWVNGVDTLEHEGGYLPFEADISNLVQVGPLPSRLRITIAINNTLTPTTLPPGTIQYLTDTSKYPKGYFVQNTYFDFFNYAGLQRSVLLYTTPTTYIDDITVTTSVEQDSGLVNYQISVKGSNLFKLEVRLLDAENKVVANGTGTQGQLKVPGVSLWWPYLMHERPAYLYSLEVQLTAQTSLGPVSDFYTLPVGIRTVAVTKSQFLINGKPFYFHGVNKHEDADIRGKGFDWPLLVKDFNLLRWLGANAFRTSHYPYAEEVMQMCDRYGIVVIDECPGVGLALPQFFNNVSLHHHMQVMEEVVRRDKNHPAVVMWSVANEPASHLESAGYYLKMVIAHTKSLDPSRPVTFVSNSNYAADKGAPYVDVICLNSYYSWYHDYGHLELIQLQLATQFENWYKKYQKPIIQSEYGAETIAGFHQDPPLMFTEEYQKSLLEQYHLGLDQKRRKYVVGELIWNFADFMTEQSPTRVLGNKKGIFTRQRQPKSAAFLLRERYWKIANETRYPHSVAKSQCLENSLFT
The assay is described as follows: cABPP Assay 2, platelet lysates, GUSB. Type of assay: biochemical. The settings on record: preincubation with inhibitor. The procedure: For further competitive ABPP studies, a working protein mixture was prepared by mixing the platelet lysates (87.5 μL), buffer (pH 5.0, 150 mM, 157.5 μL) and 3 M NaCl solution (35 μL). The enzymatic reactions were carried out at a constant concentration of read-out 7 (100 nM, final). For each inhibitor 2, 12 and 13, triplicate sets of ten 0.5 mL low protein binding Eppendorf tubes were prepared. Working solutions of each inhibitor (1% DMSO (w/v), 5 μL) in a range of ten concentrations (100, 50, 25, 12.5, 6.3, 3.1, 1.6, 0.8, 0.4, 0 μM) were prepared with MilliQ water and kept on ice. The working protein mixture (8 μL) was added in each protein low binding 0.5 mL Eppendorf tube, and 1 μL of inhibitor solution was added while on ice.
Further cABPP studies were undertaken using platelet lysates to provide a more physiologically realistic environment. Platelet lysates contain complex mixtures of overlapping enzyme activities, including both endo- and exo-β-glucuronidases HPSE and GUSB respectively, thus provide a challenging environment to test inhibitor specificity.

`CC(=O)NC1C(O)[C@H](O)C(CO)O[C@@H]1O[C@H]1C(O)C(O)[C@@H]2OC2C1C(=O)O` (stereo partly drawn) [Compound 2, 4-O-(2-N-acetyl-2-deoxy-D-glucopyranosyl)-glucurono-cyclophellitol]: in assay [1], the “incidence of lung metastases (4T1)” value was “marked reduction in the incidence of lung metastases”. In addition, the IC50 in assay [2] came to 300 ± 200 nM. Besides, the “effect on GUS signals” value in assay [3] was “without altering GUS signals”.
